In one data set the test system is 1a replicon. Nature of the data set: HCV replicon luciferase assay, genotype 1a. Type of data set: cell-based. Here is the method:
Compound 52 was tested against genotypes 1a, 1b, and 2a in an HCV replicon assay as described in Example 2. Replicon cells (genotype 1a or 1b) were seeded onto 96-well plates, cultured for three days in the presence of the compound, and subject to a luciferase assay.

A short description of data set [1]: MTS Cytotoxicity Assay in HPC cells. Type of data set: cell-based. The conditions noted are these: human; HPC cells (2a virus line). The protocol: HPC cells were infected with JFH-1 (genotype 2a) and treated with the compound for 4 days (virus inoculum was removed after 16 hrs). Remaining virus was measured by an anti-HCV core ELISA. Compound cytotoxicity was also measured in parallel using a colorimetric proliferation assay as described in Example 5.
The cytotoxicity assay measures the viability of cells after treatment with a test compound for 5 days. The assay readout is the bioreduction of the yellow MTS tetrazolium compound to a purple formazan product. This conversion is mediated by NADPH or NADH and is directly proportional to the number of live cells in a culture.
Ninety-six-well Corning Costar plates were seeded with HPC cells at a density of 3.0×10^3 cells per well in 50 μL of Huh-7 media. Compound stock solutions were made up freshly in Huh-7 media as 2× stocks. Seven additional 3-fold drug dilutions were prepared from the 2× stocks in Huh-7 media for a total of 8 dilutions.
At least 4 hours after HPC cells were seeded, 50 μL of each drug dilution was added to the cultures. […]
After 5 days of treatment, the CellTiter 96® Aqueous One Solution cell proliferation assay was performed by adding 20 μL of MTS solution to each well. […] Plates were read at A490 nm in a Victor^3 V 1420 multilabel counter (Perkin Elmer) and CC50 concentrations were determined using Microsoft Excel and XLfit 4.1 software. […]

Data set [2] concerns ZlucA cell line (genotype 1b replicon selected with 10 nM compound 52, D168V). Briefly: Extent of resistance after selection, luciferase assay, ZlucA. Type of data set: cell-based, HCV. The conditions noted are these: selecting conc. 10 nM, EC50 resistant / EC50 wild-type. Here is the method: (§1) Replicon cells (genotype 1a or 1b) were treated with various concentrations of compound 52 in the presence of G418. Treatment-emergent genotypic changes were identified by population sequencing of NS3 (both protease and helicase regions). The activity of compound 52 and other compounds was evaluated by NS5A western blot after selection or luciferase assay during and after selection.
(§2) Eight drug-resistance replicon cell lines were created by long-term culture of genotype 1b replicon cells with 10 or 25 nM of compound 52. NS3 (AAs 1-631) was sequenced at each passage.

Data set [3] concerns ZlucB cell line (genotype 1b replicon selected with 25 nM compound 52, D168V). Nature of the data set: Extent of resistance after selection, luciferase assay, ZlucB. Type of data set: cell-based, HCV. The note with it: selecting conc. 25 nM, EC50 resistant / EC50 wild-type. Here is the method: as §1, §2
Data set [4] relates to B-1a cell line (genotype 1a replicon selected with 10 nM, D168A). Nature of the data set: Extent of resistance after selection, B-1a. Type of data set: cell-based, HCV. The note with it: selecting conc. 10 nM. The protocol: as §1
Data set [5] relates to genotype 1b luciferase-replicon NS3 A156S. Here is the method:
(§3) The activity of compound 52 was evaluated against replicons bearing single protease inhibitor-resistance mutations as compared to its activity against the wild-type replicon. Mutations were introduced into a genotype 1b luciferase-replicon by site-directed mutagenesis. Compound activity was measured in cells transiently transfected with in vitro transcribed wild-type or mutant luciferase-replicon RNA by luciferase assay after 4-day treatment. Replication capacity was determined in untreated transfected cells by comparing the luciferase activity at 4 hrs and 4 days post-transfection.

Data set [6] deals with genotype 1b luciferase-replicon NS3 A156T. The protocol:
as §3

In data set [7] the test system is genotype 1b luciferase-replicon NS3 D168A. The protocol:
as §3

Data set [8] relates to genotype 1b luciferase-replicon NS3 D168E. Here is the method: as §3
Data set [9] concerns genotype 1b luciferase-replicon NS3 D168V. The protocol:
as §3

Data set [10] concerns genotype 1b luciferase-replicon NS3 D168Y. The protocol: as §3
Data set [11] concerns genotype 1b luciferase-replicon NS3 Q80R. Here is the method: as §3
For data set [12], the system named is genotype 1b luciferase-replicon NS3 R155K. Here is the method: as §3
The test system of data set [13] is genotype 1b luciferase-replicon NS3 R155Q. The protocol: as §3
Data set [14] concerns genotype 1b luciferase-replicon NS3 T54A. Here is the method:
as §3

In data set [15] the test system is replicon bearing NS5B Mutation C316Y. The protocol:
as §3
(§4) The activity of compound 52 was also tested against replicons bearing a single polymerase inhibitor-resistance mutation. Each mutation confers resistance to a known polymerase inhibitor as reported in the literature.

For data set [16], the system named is replicon bearing NS5B Mutation C445F. Here is the method:
as §3, §4

The subject of data set [17] is replicon bearing NS5B Mutation C445Y. Here is the method: as §3, §4
The subject of data set [18] is replicon bearing NS5B Mutation M414T. The protocol:
as §3, §4

Data set [19] relates to replicon bearing NS5B Mutation M423T. Here is the method: as §3, §4
The subject of data set [20] is replicon bearing NS5B Mutation S282T. The protocol: as §3, §4
In data set [21] the test system is replicon bearing NS5B Mutation Y448H. Here is the method: as §3, §4
Data set [22] has as its system S. typhimurium and E. coli. Nature of the data set: Bacterial mutation test. Type of data set: cell-based. The conditions noted are these: up to 5,000 μg/plate, with and without S9. Here is the method: The potential for compound 52 to induce mutations in a bacterial system (S. typhimurium and E. coli—at concentrations up to 5,000 μg/plate), to induce chromosomal aberrations in cultures of human peripheral blood lymphocytes (at concentrations up to 84 μg/mL), and to induce clastogenic and/or aneugenic activity in CD-1 mice (at oral doses up to 2,000 mg/kg) was evaluated. The two in vitro studies were performed with and without the addition of a mammalian metabolic activation system (rat liver S9 subcellular fraction).

Structures are written as SMILES.

In general, EC50 refers to the concentration needed to bring the measured effect to its halfway point. Read a low EC50 as higher potency in that assay. The CC50 is the concentration at which the toxic effect on the cells reaches its halfway point. A higher CC50 goes with lower toxicity to the cells. As for `COc1ccc2c(O[C@H]3CCN4C(=O)N(C)CCCC/C=C\[C@@H]5C[C@@]5(C(=O)NS(=O)(=O)C5(C)CC5)NC(=O)[C@@H]4C3)cc(-c3nc(C(F)(F)F)cs3)nc2c1C` [Compound 52, 1-methyl-cyclopropanesulfonic acid{(Z)-(1S,4R,6S,18S)-18-[7-methoxy-8-methyl-2-(4-trifluoromethyl-thiazol-2-yl)-quinolin-4-yloxy]-13-methyl-2,14-dioxo-3,13,15-triaza-tricyclo[13.4.0.0*4,6*]nonadec-7-ene-4-carbonyl}amide], in the data set on 1a replicon, the “Selectivity Index” value was >22,647. A half-maximal effect in the data set on 1a replicon (Hepatitis C virus, 72 h, three days, luciferase assay) (EC50) was put at 0.0034 ± 0.0011 µM. This compound also registered a CC50 at 5 days in data set [1] of 11.3 ± 0.1 µM. In addition, the Fold-Change in data set [2] is 250 ± 66; in [3], 1037 ± 144; in data set [4], >3690; in data set [5], 0.5 ± 0.1; in [6], 27.1 ± 9.5; in data set [7], 575 ± 210. Also, the Fold-Change in data set [8] worked out at 41.4 ± 17.8; in [9], 4587 ± 1003; in [10], 1107 ± 513; in [11] it was 5.7 ± 0.9; in data set [12] it was 9.0 ± 1.7; in data set [13], 0.6 ± 0.09. For the same compound, the Fold-Change in [14] is 1.4 ± 0.2; in data set [15] it was 1.7 ± 0.6; in [16], 0.9 ± 0.07; in data set [17] it was 0.9 ± 0.07; in data set [18] it was 1.6 ± 0.5; in data set [19], 0.9 ± 0.08. In addition, the Fold-Change is given as 1.4 ± 0.6 in data set [20] and 1.7 ± 0.4 in [21]. Besides, the “genotoxicity, bacterial mutation test” value in data set [22] is reported as “no genotoxicity”.

Values taken from US8993595B2, “Macrocyclic serine protease inhibitors” (priority 2009, dated 2015).
